Laboratory results taken from the METLIN SMRT retention time set (Domingo-Almenara et al. 2019).

Experiment: gradient 5% acetonitrile 3 min, to 50% in 2 min, to 85% in 15 min, held 3 min, 100 µL/min
Conditions: column: Zorbax Extend-C18 2.1 x 50 mm; eluents: water / acetonitrile, 0.1% formic acid
How it was run: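 Pure standards were analyzed in mixtures of ~100 molecules using HPLC coupled to a quadrupole time-of-flight mass spectrometer, in both positive and negative ionization mode. Separation used a Zorbax Extend-C18 column (2.1 × 50 mm, 1.8 μm) at 100 μL/min, with water and acetonitrile each containing 0.1% formic acid. Dead and dwell volumes were 40 μL and 900 μL, and data were collected over 3 months. Retention time was read from computationally picked adduct peaks, each inspected manually.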

| RP-LC retention time [s] | Structure (SMILES) |
| --- | --- |
| 946 | COC(=O)C1=CN(c2ccc(C)cc2)c2cc(F)ccc2S1(=O)=O |
| 851 | Cc1cc(C)cc(N2C(=O)CN(S(C)(=O)=O)CC2(C)C(=O)NCc2ccccc2)c1 (stereo not drawn) |
| 1070 | Fc1cccc(-n2cc(-c3noc(-c4ccccc4)n3)nn2)c1 |
| 776 | Cc1cccc(-c2ncccc2CNS(=O)(=O)c2cc(F)cc(F)c2)c1 |
| 1020 | CSc1cccc(NC(=O)Cn2cccc(-c3nc(-c4ccc(Cl)cc4)no3)c2=O)c1 |
| 765 | Cc1cc(NC(=O)CN2C(=O)CN(C)C(=O)c3ccccc32)ccc1Br |
| 1010 | Cc1ccc(NC(=O)N2CCCC(C)(C(=O)NCc3ccc(F)cc3)C2)c(Cl)c1 (stereo not drawn) |
| 620 | COc1ccc(-c2cc(N3CCN(C(=O)Nc4ccc(OC)c(OC)c4)CC3)ncn2)cc1 |
| 799 | CC(C)NC(=O)N1CCCC1c1noc(COc2ccc(F)cc2)n1 (stereo not drawn) |
| 823 | CCOC(=O)c1nc(NCc2ccc(C)cc2)c2ccccc2n1 |
| 836 | Cc1ccc(C)c(NC(=O)C2(C)Oc3cccnc3N(C)C2=O)c1 (stereo not drawn) |
| 736 | COCCCN(C(=O)c1ccccc1)C(C)C(=O)c1c(C)[nH]c(C(=O)OC)c1C (stereo not drawn) |
| 778 | CCC(=O)N1CCc2cc(N3CC(C(=O)Nc4ccc(C)cc4F)CC3=O)ccc21 (stereo not drawn) |
| 950 | CCOC(=O)C(=O)Nc1ccc(SCc2nnc(-c3ccccc3C)o2)cc1 |
| 796 | O=C(Cn1nc2c(Oc3ccccc3)nccn2c1=O)Nc1ccc(F)cc1Cl |
| 754 | COc1ccc(CNC(=O)Cn2c(=O)c3cc(-c4ccco4)nn3c3ncccc32)cc1 |
| 642 | COC(=O)c1ccc(NC(=O)Cc2csc(NC(=O)c3ncccn3)n2)cc1 |
| 967 | Cn1cc(SCC(=O)Nc2ccccc2C(F)(F)F)c2ccccc21 |
| 644 | COC(=O)CNC(=O)N1CCN(c2nc3ccccc3n2Cc2ccccc2)CC1 |
| 894 | CN(C)S(=O)(=O)c1ccc(-c2nnc(C(=O)NCc3ccccc3Cl)o2)cc1 |
| 956 | COc1ccc(NC(=O)C2CCC(=O)N2S(=O)(=O)c2ccc(C)c(C)c2)cc1Cl (stereo not drawn) |

| RP-LC retention time [s] | Structure (SMILES) |
| --- | --- |
| 696 | Cc1ccc(-c2[nH]c3[nH]c(=O)[nH]c(=O)c3c2C2C(=O)N(C)c3ccccc32)cc1 (stereo not drawn) |
| 769 | CCOC(=O)c1nc(NCCc2ccccc2)c2ccccc2n1 |
| 815 | COc1ccc(NC(=O)C2(C)Oc3cccnc3N(C)C2=O)c(OC)c1 (stereo not drawn) |
| 828 | CCN1c2ccc(C)cc2C(=O)NC12CCN(C(=O)c1ccc(F)cc1)CC2 |
| 1070 | CNC(=O)c1c(NC(=O)c2ccc(C)cc2)sc2c1CCC2 |
| 854 | COc1ccc(-c2ncc3c(=O)n(CC(=O)Nc4cc(OC)cc(OC)c4)cnc3n2)cc1 |
| 797 | CCOC(=O)c1cccc(NC(=O)C2CCCN(c3nnc(C)c4c(C)n(-c5ccccc5)nc34)C2)c1 (stereo not drawn) |
| 757 | COc1ccccc1CNC(=O)C1CCCN1S(=O)(=O)c1cc2c(cc1C)NC(=O)C(C)O2 (stereo not drawn) |
| 830 | CCOC(=O)c1ccc2nc(NC(=O)c3ccco3)sc2c1 |
| 888 | CCOC(=O)Cc1ccc(NC(=O)NC2CCN(c3cc(C)cc(C)c3)C2=O)cc1 (stereo not drawn) |
| 935 | CC(CCc1ccccc1)NC(=O)c1ccc2c(c1)CCCN2S(C)(=O)=O (stereo not drawn) |
| 645 | Fc1ccc(-c2nnc(-c3ccc(-n4ccnc4)nc3)o2)c(F)c1 |
| 913 | Cc1cc(OCC(=O)Nc2ccnn2Cc2cccs2)ccc1Cl |
| 808 | Cc1ccc(NC(=O)Cn2nc3nc(N4CCCC(C)C4)ccn3c2=O)c(C)c1 (stereo not drawn) |
| 983 | COc1ccc(N2CC(c3noc(-c4ccc(C)c(C)c4)n3)CC2=O)cc1OC (stereo not drawn) |
| 1010 | O=C(NCc1ccc2c(c1)OCO2)c1nn(-c2ccc(Cl)cc2)nc1CO |
| 771 | O=C(CCn1cnc2cc(-c3noc(-c4ccc(F)cc4)n3)ccc21)N1CCCC1 |
| 939 | COC(=O)C1=CN(c2ccc(Br)cc2)c2cc(F)ccc2S1(=O)=O |
| 770 | O=C(COc1ccccc1F)Nc1ccc2c(c1)CN(C(=O)c1ccco1)CC2 |
| 752 | CCCCN1CCN(S(=O)(=O)c2ccccc2-c2nc(-c3ccc(F)cc3)no2)CC1 |
| 750 | O=C(CSc1ncnc2c1cnn2-c1ccc(Cl)cc1)Nc1ccc(F)cc1F |

The remaining lines, values behind:

| Structure (SMILES) | RP-LC retention time [s] |
| --- | --- |
| Cc1noc(-c2ccnc(-n3cnc(C(=O)NCCc4ccccc4)c3)c2)n1 | 823 |
| Cc1cnc(C(=O)NC2C[C@H]3CC[C@@H](C2)N3C(=O)c2ccc(C)s2)cn1 (stereo partly drawn) | 683 |
| O=C(/C=C/c1ccc(CN(CCO)CCc2c[nH]c3ccccc23)cc1)NO | 622 |
| CC(C)n1cnc(S(=O)(=O)N2CCC(C(=O)NCc3ccccc3)CC2)c1 | 712 |
| CCOc1ccc(S(=O)(=O)N2CCC(C(=O)NCc3csc(-c4cccs4)n3)CC2)cc1 | 914 |
| CCCNC(=O)N1CCN(c2nc3ccccc3n(Cc3ccccc3)c2=O)CC1 | 863 |
| Cc1cc(OCC(=O)N[C@@H](Cc2ccccc2)C(=O)O)c2c3c(c(=O)oc2c1)CCC3 | 835 |
| CCC(=O)N1CCc2cc(C)c(S(=O)(=O)NC3CCCC3)cc21 | 869 |
| CN(C)CCCCN1CCc2c(n(C)c3ccccc23)C1=O | 650 |
| CCCNC(=O)c1ncn2c1C(=O)N(C1CC1)C(C)(C(=O)NCc1cccc(C)c1)C2 (stereo not drawn) | 717 |
| O=C(CC1CCN(C(=O)Nc2ccccc2Cl)CC1)N1CCCCC1 | 806 |
| O=S(=O)(NC1CCCCCC1)c1ccc(-c2nnc(C3CCCC3)o2)o1 | 1080 |
| CC(C)CC(=O)N1CCc2c(c(C(=O)NCc3ccc4c(c3)OCO4)nn2C)C1 | 745 |
| CC(C)n1c(C2CCN(C(=O)C3CCCO3)CC2)nn(C)c1=O (stereo not drawn) | 592 |
| Cc1nn(C)c(C)c1CCN(C)C(=O)C1Cn2cccc2C(=O)N1C (stereo not drawn) | 680 |
| O=C(NC1CCCCC1)C1CCCN(c2ncc(-c3ccccc3)cn2)C1 (stereo not drawn) | 1070 |
| Cc1nc(-n2cccc2)sc1C(=O)NCc1cc(-c2cccs2)on1 | 894 |
| CCOC(=O)c1csc(NC(=O)c2ccc3ncsc3c2)n1 | 726 |
| CCOC(=O)C1CCN(C(=O)CCc2nc(-c3ccc(N4CCCC4)cc3)no2)CC1 | 1030 |
| COc1nn(C)cc1C(=O)NCc1ccco1 | 599 |
| O=C(NCC1CCCO1)C1CCN(C(=O)C2Sc3ccccc3NC2=O)CC1 (stereo not drawn) | 642 |
| O=C(NC1(c2nc(-c3ccccn3)no2)CCCCC1)c1ccccc1 | 848 |
| Cc1ccc(-c2nccn3cc(C(=O)N4CCN(C5CCCCC5)CC4)nc23)cc1 | 682 |

| Structure (SMILES) | RP-LC retention time [s] |
| --- | --- |
| Cc1noc(-c2nc(-c3cccnc3)no2)n1 | 736 |
| O=C(N[C@H]1C[C@@H]2C[C@H]1CN2S(=O)(=O)c1cccc2cccnc12)c1ccccc1 | 792 |
| Cc1cc(OCC(=O)N2CCC3(O)CCCCC3C2)c2c(C)c(C)c(=O)oc2c1 (stereo not drawn) | 798 |
| COCCn1c(CC2CCN(C(=O)Cc3ccsc3)C2)nc2cccnc21 (stereo not drawn) | 599 |
| Cc1nn(-c2cc(N3CCCC3)ncn2)c(C)c1CCC(=O)NCc1ccco1 | 686 |
| CCn1c(=O)c2c(nc3n2CCCN3C2CCCCC2)n(C)c1=O | 899 |
| CN(CCc1noc(COc2ccc(Cl)cc2)n1)C(=O)NC(C)(C)C | 953 |
| O=C(O)c1cc(NS(=O)(=O)c2ccccc2C(F)(F)F)cc(C(=O)O)c1 | 660 |
| CCOC(=O)c1ccc(NC(=O)N2CCC(CN3CCOCC3)CC2)cc1 | 610 |
| Cn1nc2ccc(S(=O)(=O)N3CCCCC3)cn2c1=O | 703 |
| CC(C)(C)C(=O)N1CCCC(c2ccnc(-c3ccccc3)n2)C1 (stereo not drawn) | 1020 |
| CC1=C2C(=O)[C@H]3[C@@H](CC=C4C[C@@H](O)CC[C@@]43C)[C@@H]2CC[C@]12O[C@@H]1C[C@H](C)CN[C@H]1C2C (stereo partly drawn) | 699 |
| CCOC(=O)c1c(S(=O)(=O)N2CCC(C(=O)Nc3cc(C)ccc3OC)CC2)c(C)n(C)c1C | 936 |
| C[C@H]1CN(C(=O)c2c(F)cccc2F)C[C@@H]1c1nc(-c2ccncc2)no1 | 798 |
| Fc1ccc(CN2CCCCC2c2nc(-c3cnccn3)no2)cc1F (stereo not drawn) | 849 |
| CCCN1CCCCc2cc(C(=O)NCC(C)C)sc21 | 1100 |
| Cc1c(-c2nsc(Nc3ccccc3)n2)nnn1-c1cccc(Cl)c1 | 1070 |
| Cc1nc2cc(N3CCCC(C(=O)NCc4cccs4)C3)cnc2nc1C (stereo not drawn) | 687 |
| Cc1cc(C(=O)N2C[C@@H](C)[C@H](c3nc(-c4ccncc4)no3)C2)n[nH]1 | 619 |
| Cn1ncc(Cl)c1C(=O)N1CCCC1c1ccc(F)cc1 (stereo not drawn) | 825 |
| Cc1cccc(-c2nc(C3CCN(S(=O)(=O)c4cc(C)ccc4C)CC3)no2)c1 | 1320 |
| CCCCN1CCN(c2ncccc2-c2nnc(-c3ccc(Cl)cc3)o2)CC1 | 743 |
| Cc1cc(C)cc(NS(=O)(=O)c2cc3c4c(c2)CCC(=O)N4CCC3)c1 | 874 |
